Legend:
TYRO3 = molecular target: T1, TYRO3 (Homo sapiens, UniProt Q06418); test: Microfluidic capillary electrophoresis (MCE) kinase activity assay, Tyro3; format: biochemical
T1 sequence (Q06418 41-890): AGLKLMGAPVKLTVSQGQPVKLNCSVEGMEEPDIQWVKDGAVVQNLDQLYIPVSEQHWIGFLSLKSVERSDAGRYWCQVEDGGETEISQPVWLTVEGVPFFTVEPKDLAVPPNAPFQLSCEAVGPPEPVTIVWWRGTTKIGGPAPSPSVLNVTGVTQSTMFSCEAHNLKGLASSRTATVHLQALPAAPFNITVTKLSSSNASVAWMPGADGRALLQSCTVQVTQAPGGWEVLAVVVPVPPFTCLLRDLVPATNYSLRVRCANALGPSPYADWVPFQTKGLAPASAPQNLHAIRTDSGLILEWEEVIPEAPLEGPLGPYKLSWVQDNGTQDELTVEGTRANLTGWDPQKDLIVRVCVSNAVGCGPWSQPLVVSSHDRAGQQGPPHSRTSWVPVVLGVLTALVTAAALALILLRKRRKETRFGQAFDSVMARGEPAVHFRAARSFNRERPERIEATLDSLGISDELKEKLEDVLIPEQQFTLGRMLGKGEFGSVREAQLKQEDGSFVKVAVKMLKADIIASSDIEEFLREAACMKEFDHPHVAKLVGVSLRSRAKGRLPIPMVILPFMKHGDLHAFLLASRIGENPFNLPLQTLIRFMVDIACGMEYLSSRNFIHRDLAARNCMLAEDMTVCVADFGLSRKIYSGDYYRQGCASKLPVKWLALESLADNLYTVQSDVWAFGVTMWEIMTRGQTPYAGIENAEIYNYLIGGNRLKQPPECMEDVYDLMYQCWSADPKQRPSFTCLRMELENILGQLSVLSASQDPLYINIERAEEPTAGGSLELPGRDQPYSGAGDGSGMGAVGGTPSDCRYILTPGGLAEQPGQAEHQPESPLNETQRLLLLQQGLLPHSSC

MERTK = molecular target: T2, MERTK (Homo sapiens, UniProt Q12866); test: Microfluidic capillary electrophoresis (MCE) kinase activity assay, Mer; format: biochemical
T2 sequence (Q12866 21-999): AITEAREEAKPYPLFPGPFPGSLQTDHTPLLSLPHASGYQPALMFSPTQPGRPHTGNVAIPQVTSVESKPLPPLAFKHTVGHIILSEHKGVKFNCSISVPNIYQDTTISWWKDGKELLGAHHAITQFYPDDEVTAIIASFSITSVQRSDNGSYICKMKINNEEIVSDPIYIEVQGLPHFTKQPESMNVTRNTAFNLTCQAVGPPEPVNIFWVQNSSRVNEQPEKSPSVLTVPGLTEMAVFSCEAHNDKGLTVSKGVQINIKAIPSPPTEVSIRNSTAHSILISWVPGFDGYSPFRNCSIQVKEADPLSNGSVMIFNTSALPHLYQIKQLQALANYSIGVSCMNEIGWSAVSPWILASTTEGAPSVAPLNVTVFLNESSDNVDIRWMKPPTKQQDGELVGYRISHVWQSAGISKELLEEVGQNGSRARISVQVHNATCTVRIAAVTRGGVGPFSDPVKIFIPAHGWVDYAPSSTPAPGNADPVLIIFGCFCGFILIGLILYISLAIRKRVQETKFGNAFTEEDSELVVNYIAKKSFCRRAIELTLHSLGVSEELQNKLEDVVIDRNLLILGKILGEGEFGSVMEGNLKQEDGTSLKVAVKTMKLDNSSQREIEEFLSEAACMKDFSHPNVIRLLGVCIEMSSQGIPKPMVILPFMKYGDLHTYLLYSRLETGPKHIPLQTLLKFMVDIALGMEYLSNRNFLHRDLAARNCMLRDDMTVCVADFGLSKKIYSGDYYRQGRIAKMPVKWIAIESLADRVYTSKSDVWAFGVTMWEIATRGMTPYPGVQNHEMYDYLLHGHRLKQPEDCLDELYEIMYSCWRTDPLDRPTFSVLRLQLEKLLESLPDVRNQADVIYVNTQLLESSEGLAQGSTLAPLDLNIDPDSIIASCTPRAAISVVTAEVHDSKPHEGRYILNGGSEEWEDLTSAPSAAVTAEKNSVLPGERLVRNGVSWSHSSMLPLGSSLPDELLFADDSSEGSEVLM

AXL = molecular target: T3, AXL (Homo sapiens, UniProt P30530); test: Microfluidic capillary electrophoresis (MCE) kinase activity assay, Axl; format: biochemical
T3 sequence (P30530 26-894): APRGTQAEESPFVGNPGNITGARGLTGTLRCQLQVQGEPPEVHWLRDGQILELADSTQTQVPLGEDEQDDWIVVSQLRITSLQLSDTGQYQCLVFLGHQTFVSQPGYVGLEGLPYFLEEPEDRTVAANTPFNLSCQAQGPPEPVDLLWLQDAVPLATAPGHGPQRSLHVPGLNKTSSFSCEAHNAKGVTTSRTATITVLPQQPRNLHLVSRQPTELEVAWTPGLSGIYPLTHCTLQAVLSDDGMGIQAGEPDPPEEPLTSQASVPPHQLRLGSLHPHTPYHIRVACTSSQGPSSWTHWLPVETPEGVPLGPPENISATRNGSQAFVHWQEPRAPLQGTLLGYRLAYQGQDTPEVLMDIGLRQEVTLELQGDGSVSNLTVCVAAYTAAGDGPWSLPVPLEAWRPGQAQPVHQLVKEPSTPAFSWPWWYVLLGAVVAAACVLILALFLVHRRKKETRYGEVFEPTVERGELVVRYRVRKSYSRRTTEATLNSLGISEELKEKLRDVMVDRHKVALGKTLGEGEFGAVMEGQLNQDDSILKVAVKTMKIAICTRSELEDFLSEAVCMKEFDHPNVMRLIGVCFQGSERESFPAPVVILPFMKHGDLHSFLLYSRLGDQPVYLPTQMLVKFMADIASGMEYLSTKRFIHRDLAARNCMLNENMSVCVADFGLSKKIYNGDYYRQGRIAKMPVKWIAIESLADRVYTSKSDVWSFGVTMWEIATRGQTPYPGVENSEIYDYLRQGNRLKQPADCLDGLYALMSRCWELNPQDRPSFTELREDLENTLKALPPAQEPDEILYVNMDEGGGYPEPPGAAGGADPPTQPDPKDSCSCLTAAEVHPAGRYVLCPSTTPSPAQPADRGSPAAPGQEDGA

[1] = cited from earlier work

IC50 (TYRO3; Table 2, MCE assay, ATP at Km) [nM] | IC50 (MERTK; Table 2, MCE assay, ATP at Km) [nM] | IC50 (AXL; Table 2, MCE assay, ATP at Km) [nM] | SMILES | further results
< 10 | 100 to 1000 | 100 to 1000 | CC(C)(C)OC(=O)N1CCN(Cc2ccc(-c3cn([C@H]4CC[C@H](O)CC4)c4nc(Nc5cc(F)cc(Cl)c5)ncc34)cc2)CC1 [Compound 28] | –
< 10 | < 10 | 10 to 100 | O[C@H]1CC[C@H](n2cc(-c3ccc(CN4CCNCC4)cc3)c3cnc(Nc4cc(F)cc(Cl)c4)nc32)CC1 [Compound 29] | –
< 10 | < 10 | 10 to 100 | CCN1CCN(Cc2ccc(-c3cn([C@H]4CC[C@H](O)CC4)c4nc(Nc5cc(F)cc(Cl)c5)ncc34)cc2)CC1 [Compound 30] | –
< 10 | < 10 | 10 to 100 | O[C@H]1CC[C@H](n2cc(-c3ccc(CN4CCN(C5CCCC5)CC4)cc3)c3cnc(Nc4cc(F)cc(Cl)c4)nc32)CC1 [Compound 31] | –
< 10 | < 10 | 10 to 100 | CN1CCC(Oc2ccc(-c3cn([C@H]4CC[C@H](O)CC4)c4nc(Nc5cc(F)cc(Cl)c5)ncc34)cc2)CC1 [Compound 37] | –
– | – | – | CN1CCN(Cc2ccc(-c3cn([C@H]4CC[C@@H](O)CC4)c4nc(Nc5cc(F)cc(Cl)c5)ncc34)cc2)CC1 [Compound 39] | IC50 (TYRO3; Table 3, MCE assay, ATP at Km): < 10 nM; IC50 (MERTK; Table 3, MCE assay, ATP at Km): < 10 nM; IC50 (AXL; Table 3, MCE assay, ATP at Km): 10 to 100 nM
– | – | – | CN1CCC(Oc2ccc(-c3cn([C@H]4CC[C@H](O)CC4)c4nc(Nc5cc(F)cc(Cl)c5)ncc34)cc2)CC1 [Compound 60] | IC50 (TYRO3; Table 7): < 10 nM; IC50 (MERTK; Table 7): < 10 nM; IC50 (AXL; Table 7): 10 to 100 nM
< 10 | < 10 | < 10 | CN1CCN(Cc2ccc(-c3cn([C@H]4CC[C@H](O)CC4)c4nc(Nc5cccnc5)ncc34)cc2)CC1 [Compound 64] | –
< 10 | < 10 | < 10 | CN1CCN(Cc2ccc(-c3cn([C@H]4CC[C@H](O)CC4)c4nc(Nc5cncnc5)ncc34)cc2)CC1 [Compound 66] | –
– | – | – | CN1CCC(Oc2ccc(-c3cn([C@H]4CC[C@H](O)CC4)c4nc(Nc5cc(C(F)(F)F)cc(C(F)(F)F)c5)ncc34)cc2)CC1 [Compound 150, trans-4-(2-((3,5-bis(trifluoromethyl)phenyl)amino)-5-(4-((1-methylpiperidin-4-yl)oxy)phenyl)-7H-pyrrolo[2,3-d]pyrimidin-7-yl)cyclohexan-1-ol] | IC50 (TYRO3; Table 7): 10 to 100 nM; IC50 (MERTK; Table 7): 1000 to 30000 nM; IC50 (AXL; Table 7): 1000 to 30000 nM
– | – | – | CN1CCN(C(=O)c2ccc(-c3cn([C@H]4CC[C@H](O)CC4)c4nc(Nc5cc(F)cc(Cl)c5)ncc34)cc2)CC1 [Compound 156] | IC50 (TYRO3; Table 9): < 10 nM; IC50 (MERTK; Table 9): < 10 nM; IC50 (AXL; Table 9): 10 to 100 nM
– | – | – | CC(=O)Oc1ccccc1C(=O)O [aspirin] | baseline major bleeding risk (gastrointestinal or intracranial) ([1]; in vivo): 1-4%
– | – | – | COC(=O)[C@H](c1ccccc1Cl)N1CCc2sccc2C1 [clopidogrel] | further increase of major bleeding risk on addition as a combination therapy ([1]; added to aspirin): 1%

From patent publication US20260232670A1, “TYRO3 SELECTIVE INHIBITORS AND USES THEREOF” (THE UNIVERSITY OF NORTH CAROLINA AT CHAPEL HILL, priority 2023, published 2026)
